In ChEMBL document CHEMBL6109066, “Synthesis, cytotoxic evaluation, and molecular docking of novel zerumbone oxime esters and azazerumbone derivatives” (Bioorg Med Chem Lett, 2025) one finds IC50 data, which are given here for 21 molecules.

Values after ≈ are worked out from the molar mass of the structure shown. A value given as a limit tells only on which side of the number the result lay.

What all share (type): functional, cell-based
One experiment concerns HepG2. The experiment in a line: Cytotoxicity against human HepG2 cells.
A further experiment relates to A549. The experiment in a line: Cytotoxicity against human A549 cells.
In a further experiment the test system is HL-60. The experiment is described as follows: Cytotoxicity against human HL-60 cells.
Another experiment has as its system AGS. The experiment is described as follows: Cytotoxicity against human AGS cells.

For the molecule `C/C1=C\CC(C)(C)/C=C/C(=O)N/C(C)=C/CC1`, the IC50 (as a rule, the point on the concentration scale where inhibition reaches its midpoint) with HepG2 amounted to 27.4 mg/L (≈ 117 µM); with A549, 56.9 mg/L (≈ 244 µM); in the experiment on HL-60, 9.84 mg/L (≈ 42.2 µM); in the experiment on AGS, 39.6 mg/L (≈ 170 µM).
The corresponding values for `C\C1=C/CC/C(C=O)=C/CC(C)(C)/C=C/C1=N/O` are 64.1 mg/L (≈ 259 µM), 91.8 mg/L (≈ 371 µM), 37.7 mg/L (≈ 152 µM) and 53.9 mg/L (≈ 218 µM).
The corresponding values for `C#CCN[C@@H]1CC/C(C)=C/CC(C)(C)/C=C/C(=O)[C@@H]1C` are 6.52 mg/L (≈ 23.8 µM), 32.2 mg/L (≈ 118 µM), 9.59 mg/L (≈ 35.1 µM) and 11.5 mg/L (≈ 42 µM).
The corresponding values for `COc1ccc(C(=O)O/N=C2/C=C/C(C)(C)C/C=C(\C)CC/C=C/2C)cc1` are 1.42 mg/L (≈ 3.86 µM), 1.52 mg/L (≈ 4.14 µM), 1.43 mg/L (≈ 3.89 µM) and 1.93 mg/L (≈ 5.25 µM).
`CC(=O)O/N=C1/C=C/C(C)(C)C/C=C(\C)CC/C=C/1C`: the IC50 came out at 18.5 mg/L (≈ 67.3 µM) in the experiment with HepG2, 30.8 mg/L (≈ 112 µM) in the experiment with A549, 11 mg/L (≈ 39.9 µM) in the experiment on HL-60 and 23.8 mg/L (≈ 86.3 µM) in the experiment on AGS.
The corresponding values for `C/C1=C\CC(C)(C)/C=C/C(=N/OC(=O)c2ccc(Br)cc2)C(/C)=C/CC1` are 12.2 mg/L (≈ 29.4 µM), 40.8 mg/L (≈ 97.9 µM), 15.4 mg/L (≈ 36.9 µM) and 27.3 mg/L (≈ 65.6 µM).
For `C/C1=C\CC(C)(C)/C=C/C(=N/OC(=O)[C@H](NC(=O)OC(C)(C)C)C(C)C)C(/C)=C/CC1`, in that order: 1.59 mg/L (≈ 3.68 µM), 2.01 mg/L (≈ 4.65 µM), 3.88 mg/L (≈ 8.97 µM) and 3.21 mg/L (≈ 7.42 µM).
For `C/C1=C\CC(C)(C)/C=C/C(=N/OC(=O)c2ccccc2)C(/C)=C/CC1`, in that order: 3.64 mg/L (≈ 10.8 µM), 14.3 mg/L (≈ 42.3 µM), 6.63 mg/L (≈ 19.6 µM) and 10.5 mg/L (≈ 31.3 µM).
As for `COc1cc(C(=O)O/N=C2/C=C/C(C)(C)C/C=C(\C)CC/C=C/2C)ccc1OC(C)=O`, the IC50 was found to be 7.41 mg/L (≈ 17.4 µM) in the experiment with HepG2, 15.6 mg/L (≈ 36.8 µM) in the experiment with A549, 10.7 mg/L (≈ 25.2 µM) in the experiment on HL-60 and 10 mg/L (≈ 23.5 µM) in the experiment with AGS.
The corresponding values for `C/C1=C\CC(C)(C)/C=C/C(=N/OC(=O)c2cccc([N+](=O)[O-])c2)C(/C)=C/CC1` are 30.4 mg/L (≈ 79.5 µM), 58.9 mg/L (≈ 154 µM), 29.8 mg/L (≈ 77.8 µM) and 41.8 mg/L (≈ 109 µM).
For `C/C1=C\CC(C)(C)/C=C/C(=N/OC(=O)c2cccc(Cl)c2)C(/C)=C/CC1`, in that order: 14.3 mg/L (≈ 38.4 µM), 52.9 mg/L (≈ 142 µM), 10.6 mg/L (≈ 28.5 µM) and 38.3 mg/L (≈ 103 µM).
For `CC(=O)Oc1ccc(C(=O)O/N=C2/C=C/C(C)(C)C/C=C(\C)CC/C=C/2C)cc1`, in that order: 5.87 mg/L (≈ 14.8 µM), 10.9 mg/L (≈ 27.5 µM), 3.55 mg/L (≈ 8.98 µM) and 9.37 mg/L (≈ 23.7 µM).
Take `CC(=O)N1C(=O)/C=C/C(C)(C)C/C=C(\C)CC/C=C/1C`: the IC50 with HepG2 came to 32.9 mg/L (≈ 120 µM); with A549, 44.1 mg/L (≈ 160 µM); in the experiment on HL-60, 4.5 mg/L (≈ 16.3 µM); in the experiment with AGS, 9.02 mg/L (≈ 32.8 µM).
The corresponding values for `C/C1=C\CC(C)(C)/C=C/C(=N/OC(=O)c2ccc([N+](=O)[O-])cc2)C(/C)=C/CC1` are 4.61 mg/L (≈ 12.1 µM), 9.28 mg/L (≈ 24.3 µM), 9.88 mg/L (≈ 25.8 µM) and 6.66 mg/L (≈ 17.4 µM).
The corresponding values for `C/C1=C\CC(C)(C)/C=C/C(=N/O)C(/C)=C/CC1` are more than 100 mg/L, more than 100 mg/L, 45.5 mg/L (≈ 195 µM) and more than 100 mg/L.
For `C/C1=C\CC(C)(C)/C=C/C(=N/OC(=O)[C@H](NC(=O)OC(C)(C)C)C(C)(C)C)C(/C)=C/CC1`, the IC50 worked out at 1.15 mg/L (≈ 2.57 µM) with HepG2, 1.37 mg/L (≈ 3.07 µM) in the experiment with A549, 0.41 mg/L (≈ 0.918 µM) in the experiment with HL-60 and 1.5 mg/L (≈ 3.36 µM) in the experiment on AGS.
For `C/C1=C\CC(C)(C)/C=C/C(=N/OC(=O)CCl)C(/C)=C/CC1`, in that order: 37.5 mg/L (≈ 121 µM), 46.1 mg/L (≈ 149 µM), 9.03 mg/L (≈ 29.1 µM) and 44.6 mg/L (≈ 144 µM).
The corresponding values for `C/C1=C\CC(C)(C)/C=C/C(=O)[C@H](C)[C@H](Nc2ccc(Cl)cc2)CC1` are 56.2 mg/L (≈ 163 µM), more than 100 mg/L, 53.7 mg/L (≈ 155 µM) and more than 100 mg/L.
For `C/C1=C\CC(C)(C)/C=C/C(=N/OC(=O)c2ccccc2O)C(/C)=C/CC1`, in that order: 4.2 mg/L (≈ 11.9 µM), 12 mg/L (≈ 34 µM), 3.99 mg/L (≈ 11.3 µM) and 9.04 mg/L (≈ 25.6 µM).
As to `Cc1c2ccncc2c(C)c2c1[nH]c1ccccc12` [ELLIPTECINE], the IC50 in the experiment on HepG2 came to 0.33 mg/L (≈ 1.34 µM); in the experiment with A549, 0.39 mg/L (≈ 1.58 µM); in the experiment on HL-60, 0.35 mg/L (≈ 1.42 µM); with AGS, 0.4 mg/L (≈ 1.62 µM).
For `C/C1=C\CC(C)(C)/C=C/C(=O)/C(C)=C/CC1` [ZERUMBONE], in that order: 0.93 mg/L (≈ 4.26 µM), 1.03 mg/L (≈ 4.72 µM), 0.86 mg/L (≈ 3.94 µM) and 1.11 mg/L (≈ 5.08 µM).
